Data taken from US12233413B2, “Massively parallel microfluidic cell analyzer for high throughput mechanophenotyping” (priority 2018, dated 2025).
Read-outs that look alike come from different tables or passages of the source.

Experiments:
[1] = system: HeyA8 ovarian cancer cells; type: cell-based
Protocol: Cell transit times were determined in accordance with the approach described above. […] In the testing, Phosphate Buffered Saline (PBS) suspended HeyA8 ovarian cancer cells were driven through the device using a pressure pump controller (Fluigent MFCS-EZ) at 80 mbar. Three suspensions of cells with varying stiffness were prepared. The first sample was exposed to 1 μM Latrunculin A, abbreviated as LatA, (Sigma-Aldrich), an Actin polymerization inhibitor, for 60 mins at 37° C. to reduce the cell stiffness. The second sample was left untreated. […] In operation, the sensor network 620 was driven with an 500 kHz AC signal and the electrical sensor data from the chip was recorded using a lock-in-amplifier (Zurich Instruments HF2LI) and sampled into a computer. The cell size and the transit time were both measured from the sensor signal peak amplitude and the time delay between the code waveforms corresponding to sensor pairs, respectively.

[2] = system: MDA-MB-231 (human mammary adenocarcinoma) cells; type: cell-based
Protocol: For each population in our experiments, we used the computed sensor signal amplitude and constriction transit time as measures of the cell size and its stiffness, respectively (see FIGS. 10A-10C).
Because the data on different cell populations were acquired under the same driving pressure and electrical excitation, we could directly compare the characterization results (see FIG. 10D).
For the single frequency device, two different sample of MDA-MB-231 cells were treated with Latrunculin A (Sigma-Aldrich; St. Louis, MO) and formaldehyde (Sigma-Aldrich; St. Louis, MO) and suspended in Phosphate Buffered Saline (PBS). […] Prior to experiments, the cells were trypsinized for two minutes, pelleted, resuspended in PBS and mixed gently to dissociate cell clusters that may have formed. Finally, the suspension was diluted with PBS to a cell concentration of 1.5×10^6 cells/mL. For the LatA exposure, 100 μg of LatA in lyophilized powder form was reconstituted in dimethyl sulfoxide (DMSO), then diluted in PBS to form a 5.9 nM stock solution. The trypsinized and pelleted MDA-MB-231 cells were mixed with 1 mL of 1 nM LatA and incubated at 37° C. for 60 mins. The cells were pelleted once more and resuspended in PBS. […] The trypsinized and pelleted MDA-MB-231 cells were mixed with diluted 4% PFA and incubated at 37° C. for 10 mins. The cells were pelleted once more and resuspended in PBS.
During the above-described experiment, the cell sample was loaded into a sealed 10 mL laboratory tube and pneumatically driven through the device using a software-controlled pressure regulator (MFCSEZ, Fluigent). The driving pressure was 100 mbar for both single-frequency and multi-frequency devices. In the case of the single-frequency device, the electrical networks were excited using a 800 mVpp, 500 kHz sinusoidal signal generated by the lock-in amplifier (HF2LI, Zurich Instruments). For the multi-frequency device, the 500 kHz and 900 kHz sine signals were generated by the lock-in amplifier, whereas the 1300 kHz signal was obtained using a waveform generator (33612A, Keysight), all at 800 mVpp.

Row | SMILES | longer transit time of treated cells compared to the untreated cells [1] | average constriction transit time of treated cells [2] | transit time of the untreated cells longer than that of the LatA treated cells, on average ([1]; HeyA8 cells in PBS, 1 μM Latrunculin A, 60 mins at 37° C., driven at 80 mbar) | less constriction transit time than untreated cells, on average ([2]; MDA-MB-231, 1 nM LatA 60 mins at 37° C., 100 mbar) | average constriction transit time of treated cells ([2]; MDA-MB-231, 100 mbar, 1.5×10^6 cells/mL, LatA 1 nM 60 mins 37° C., fixation with diluted 4% PFA 10 mins 37° C.)
1 | C=O [Formaldehyde] | 36% | 54.01 ms |  |  | 
2 | C/C1=C/C(=O)O[C@@H]2C[C@@H](CC[C@H](C)/C=C\C=C\CC1)O[C@@](O)([C@@H]1CSC(=O)N1)C2 [LatA, Latrunculin A] |  |  | 34% | 8.9% | 42.35 ms
